In patent publication US12162878B2 (HINOVA PHARMACEUTICALS INC., priority 2018, dated 2024):

Test system: CWR22RV1 cells
Assay: Inhibition of proliferation of CWR22RV1 cells (CCK-8)
Format: cell-based, human
Conditions: Homo sapiens, 6 days
Method: • CWR22RV1 cell line (Cell Bank of Chinese Academy of Sciences, TCHu100) • FBS (Gibco, Cat. No. 10099-141) • 0.01M PBS (Biosharp, Cat. No. 162262) • RIPM1640 (Hyclone, Cat. No. 308090.01) • Penicillin-Streptomycin (Hyclone, Cat. No. SV30010) • Cell counting kit-8 (Signalway Antibody, Cat. No. CP002) • DMSO (Sigma, Cat. No. D5879) • Centrifuge Tube, 15 ml (Excell Bio, Cat. No. CS015-0001) • Cell Culture Dish, (Excell Bio, Cat. No. CS016-0128) • 96-well cell culture cluster (Corning, Cat. No. 3599) • 2. Experimental method (1) Preparation of Buffer
1) CWR22RV1 cells were subcultured in cell culture medium, and the cells in good growth condition were seeded in a 96-well plate, 80 μL for each well, thus the number of cells per well was 1500, then the plate was cultured overnight in a 37° C., 5% CO2 cell incubator.
2) The drug was prepared with dimethyl sulfoxide (DMSO) as a 30 mM stock solution. Prior to use, the solution was diluted 3 times with DMSO, and then diluted with a 3-fold gradient to obtain 9 concentration gradients. Then, each concentration of the compound was further diluted 200 times with the culture solution (to ensure that DMSO concentration in the culture system was 0.1%), 2 repeat wells for each concentration. The diluted solution of each compound (20 μL) was added to the cell culture well (with a final concentration of 10 μM, 3.3 μM, 1.1 μM . . . ), and shaken gently for mixing. In addition, three negative control wells containing only cells and three blank control wells containing only culture medium (20 μL DMSO diluted 200 times with culture medium being added to six wells) were included.
(1) After culturing for 6 days, 10 μL CCK-8 was added to each well and cultured for additional 2.5 h in a 37° C., 5% CO2 cell incubator.
(2) The absorbance (OD value) at 450 nm was measured with a multifunctional microplate reader.
(3) The data was analyzed by the Dose-response-inhibition equation in the software GraphPad Prism6, and the IC50 value was obtained.

Compound	IC50 (CWR22Rv1, 144 h) [nM]	IC50 (144 h) [nM]
[2H]C([2H])([2H])n1cc(-c2cc(S(C)(=O)=O)ccc2N2CC3(COC3)C2)c2cc[nH]c2c1=O [Compound 64, 6-trideuteromethyl-4-(5-(methylsulfonyl)-2-(2-oxa-6-aza-spiro[3.3]heptan-6-yl)phenyl)-1H-pyrrolo[2,3-c]pyridin-7(6H)-one]	380	
[2H]C([2H])([2H])n1cc(-c2cc(S(=O)(=O)CC)ccc2N2CC3(COC3)C2)c2cc[nH]c2c1=O [Compound 65, 4-(5-(ethylsulfonyl)-2-(2-oxa-6-aza-spiro[3.3]heptan-6-yl)phenyl)-6-trideuteromethyl-1H-pyrrolo[2,3-c]pyridin-7(6H)-one]	410	
[2H]C([2H])([2H])n1cc(-c2cc(S(=O)(=O)CCCC)ccc2N2CC3(COC3)C2)c2cc[nH]c2c1=O [Compound 66, 4-(5-(butylsulfonyl)-2-(2-oxa-6-aza-spiro[3.3]heptan-6-yl)phenyl)-6-trideuteromethyl-1H-pyrrolo[2,3-c]pyridin-7(6H)-one]	520	
[2H]C([2H])([2H])n1cc(-c2cc(S(=O)(=O)C3CC3)ccc2N2CC3(COC3)C2)c2cc[nH]c2c1=O [Compound 67, 4-(5-(cyclopropylsulfonyl)-2-(2-oxa-6-aza-spiro[3.3]heptan-6-yl)phenyl)-6-trideuteromethyl-1H-pyrrolo[2,3-c]pyridin-7(6H)-one]	490	
[2H]C([2H])([2H])n1cc(-c2cc(S(C)(=O)=O)ccc2N2CCC3(CC2)CC3C(=O)OCC)c2cc[nH]c2c1=O (stereo not shown) [Compound 68, ethyl 6-(2-(6-trideuteromethyl-7-oxo-6,7-dihydro-1H-pyrrolo [2,3-c]pyridin-4-yl)-4-(methylsulfonyl)phenyl)-6-aza-spiro[2.5]octan-1-carboxylate]	530	
[2H]C([2H])([2H])n1cc(-c2cc(S(C)(=O)=O)ccc2N2CCC3(CC2)CC3C(=O)O)c2cc[nH]c2c1=O (stereo not shown) [Compound 69, 6-(2-(6-trideuteromethyl-7-oxo-6,7-dihydro-1H-pyrrolo[2,3-c]pyridin-4-yl)-4-(methylsulfonyl)phenyl)-6-aza-spiro[2.5]octan-1-carboxylic acid]	570	
CCCCS(=O)(=O)Nc1ccc(N2CCC3(CC2)CC3)c(-c2cn(C)c(=O)c3[nH]ccc23)c1 [Compound 70, N-(3-(6-methyl-7-oxo-6,7-dihydro-1H-pyrrolo[2,3-c]pyridin-4-yl)-4-(6-aza-spiro[2.5]octan-6-yl)phenyl)butyl-1-sulfonamide]	130	
Cn1cc(-c2cc(NS(C)(=O)=O)ccc2N2CCCC3(CC3)C2)c2cc[nH]c2c1=O [Compound 71, N-(3-(6-methyl-7-oxo-6,7-dihydro-1H-pyrrolo[2,3-c]pyridin-4-yl)-4-(5-aza-spiro[2.5]octan-5-yl)phenyl)methylsulfonamide]	94	
Cn1cc(-c2cc(S(C)(=O)=O)ccc2N2CCC3(CC2)COC3)c2cc[nH]c2c1=O [Compound 177, 6-methyl-4-(5-(methylsulfonyl)-2-(2-oxa-7-aza-spiro[3.5]nonan-7-yl)phenyl)-1H-pyrrolo[2,3-c]pyridin-7(6H)-one]	17	
Cn1cc(-c2cc(S(C)(=O)=O)ccc2N2CCC3(CC2)CC3CO)c2cc[nH]c2c1=O (stereo not shown) [Compound 179, 4-(2-(1-(hydroxymethyl)-6-aza-spiro[2.5]octan-6-yl)-5-(methylsulfonyl)phenyl)-6-methyl-1H-pyrrolo[2,3-c]pyridin-7(6H)-one]	51	
Cn1cc(-c2cc(S(C)(=O)=O)ccc2N2CCC3(CC2)CC3C(N)=O)c2cc[nH]c2c1=O (stereo not shown) [Compound 180, 6-(2-(6-methyl-7-oxo-6,7-dihydro-1H-pyrrolo[2,3-c]pyridin-4-yl)-4-(methylsulfonyl)phenyl)-6-aza-spiro[2.5]octan-1-formamide]	460	
Cn1cc(-c2cc(S(C)(=O)=O)ccc2N2CCC3(CC2)CC3C#N)c2cc[nH]c2c1=O (stereo not shown) [Compound 181, 6-(2-(6-methyl-7-oxo-6,7-dihydro-1H-pyrrolo[2,3-c]pyridin-4-yl)-4-(methylsulfonyl)phenyl)-6-aza-spiro[2.5]octan-1-cyanide]		90
Cc1c[nH]c2c(=O)n(C)cc(-c3cc(S(C)(=O)=O)ccc3N3CCC4(CC3)CC4)c12 [Compound 182, 3,6-dimethyl-4-(5-(methylsulfonyl)-2-(6-aza-spiro[2.5]octan-6-yl)phenyl)-1H-pyrrolo[2,3-c]pyridin-7(6H)-one]	40	
[2H]C([2H])([2H])n1cc(-c2cc(S(C)(=O)=O)ccc2N2CCC3(CC2)COC3)c2cc[nH]c2c1=O [Compound 183, 6-trideuteromethyl-4-(5-(methylsulfonyl)-2-(2-oxa-7-aza-spiro [3.5]nonan-7-yl)phenyl)-1H-pyrrolo[2,3-c]pyridin-7(6H)-one]	63	
[2H]C([2H])([2H])n1cc(-c2cc(S(C)(=O)=O)ccc2N2CCC3(CC2)CC3C(N)=O)c2cc[nH]c2c1=O (stereo not shown) [Compound 185, 6-(2-(6-trideuteromethyl-7-oxo-6,7-dihydro-1H-pyrrolo[2,3-c]pyridin-4-yl)-4-(methylsulfonyl)phenyl)-6-aza-spiro[2.5]octan-1-formamide]	1040	
[2H]C([2H])([2H])n1cc(-c2cc(S(=O)(=O)CC)cnc2N2CCC3(CC2)CC3)c2cc[nH]c2c1=O [Compound 186, 4-(5(ethylsulfonyl)-2-(6-aza-spiro[2.5]octan-6-yl)pyridin-3-yl)-6-trideuteromethyl-1H-pyrrolo[2,3-c]pyridin-7(6H)-one]	21	
[2H]C([2H])([2H])n1cc(-c2cc(S(C)(=O)=O)cnc2N2CCC3(CC2)CC3)c2cc[nH]c2c1=O [Compound 187, 6-trideuteromethyl-4-(5(methylsulfonyl)-2-(6-aza-spiro[2.5]octan-6-yl)pyridin-3-yl)-1H-pyrrolo[2,3-c]pyridin-7(6H)-one]	19	
[2H]C([2H])([2H])n1cc(-c2cc(S(=O)(=O)C(C)C)cnc2N2CCC3(CC2)CC3)c2cc[nH]c2c1=O [Compound 188, 4-(5-(isopropylsulfonyl)-2-(6-aza-spiro[2.5]octan-6-yl)pyridin-3-yl)-6-trideuteromethyl-1H-pyrrolo[2,3-c]pyridin-7(6H)-one]	38	
[2H]C([2H])([2H])n1cc(-c2cc(NS(C)(=O)=O)ccc2N2CCC3(CC2)COC3)c2cc[nH]c2c1=O [Compound 189, N-(3-(6-trideuteromethyl-7-oxo-6,7-dihydro-1H-pyrrolo[2,3-c]pyridin-4-yl)-4-(2-oxa-7-aza-spiro[3.5]nonan-7-yl)phenyl)methanesulfonamide]	120	
CCS(=O)(=O)Nc1ccc(N2CC3CC2CO3)c(-c2cn(C)c(=O)c3[nH]ccc23)c1 (stereo not shown) [Compound 190, N-(4-(2-oxa-5-azabicyclo[2.2.1]heptan-5-yl)-3-(methyl-7-oxo-6,7-dihydro-1H-pyrrolo[2,3-c]pyridin-4-yl)phenyl)ethanesulfonamide]	180	
Cn1cc(-c2cc(NS(=O)(=O)C3COC3)ccc2N2CCC3(CC3)C2)c2cc[nH]c2c1=O [Compound 191, N-(3-(6-methyl-7-O-6,7-dihydro-1H-pyrrolo[2,3-c]pyridin-4-yl)-4-(5-aza-spiro[2.4]heptan-2-yl)phenyl)oxetane-3-ylsulfonamide]	140	
Cn1cc(-c2cc(NS(C)(=O)=O)ccc2N2CC3CC2CO3)c2cc[nH]c2c1=O (stereo not shown) [Compound 192, N-(4-(2-oxa-5-azabicyclo[2.2.1]heptan-5-yl)-3-(6-methyl-7-oxo-6,7-dihydro-1H-pyrrolo[2,3-c]pyridin-4-yl)phenyl)methanesulfonamide]	310	
